Test results as given in PubChem BioAssay (NCI).
Where “and” joins values, the source holds several entries; their conditions need not be identical. Equal values may be shown once.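 Values below derive from 48-hour exposures of cells grown in 96-well plates, with endpoints linearly interpolated between the two concentrations bracketing the appropriate inhibition level. GI50: concentration for 50% inhibition of growth. TGI denotes the concentration required for complete inhibition of growth.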

Assays:
Test in all cases: NCI anticancer screen, dose series, 48 h
EKVX NSCLC = system: EKVX NSCLC
ACHN renal = system: ACHN renal
SNB-19 CNS = system: SNB-19 CNS
COLO 205 colon = system: COLO 205 colon
HCT-116 colon = system: HCT-116 colon
HS 578T breast = system: HS 578T breast
SK-OV-3 ovarian = system: SK-OV-3 ovarian
SF-268 CNS = system: SF-268 CNS
HCT-15 colon = system: HCT-15 colon
NCI-H522 lung = system: NCI-H522 lung

| Compound | GI50 (EKVX NSCLC) | TGI (EKVX NSCLC) | GI50 (ACHN renal) | TGI (ACHN renal) | GI50 (SNB-19 CNS) | TGI (SNB-19 CNS) | GI50 (COLO 205 colon) | TGI (COLO 205 colon) | GI50 (HCT-116 colon) | TGI (HCT-116 colon) | GI50 (HS 578T breast) | TGI (HS 578T breast) | GI50 (SK-OV-3 ovarian) | TGI (SK-OV-3 ovarian) | GI50 (SF-268 CNS) | TGI (SF-268 CNS) | GI50 (HCT-15 colon) | TGI (HCT-15 colon) | GI50 (NCI-H522 lung) | TGI (NCI-H522 lung) |
| --- | --- | --- | --- | --- | --- | --- | --- | --- | --- | --- | --- | --- | --- | --- | --- | --- | --- | --- | --- | --- |
| Cc1nc2sc(C(=O)Nc3cccc4c3OCCO4)c(N)c2cc1C(C)O (centres undefined) | > 100 µM | > 100 µM | 5.54 µM | > 100 µM | 6.8 µM | > 100 µM | 4.27 µM | > 100 µM | 5.57 µM | > 100 µM | 3.07 µM | > 100 µM | 5.75 µM | > 100 µM | > 100 µM | > 100 µM | 3.26 µM | > 100 µM | 2.5 µM | > 100 µM |
| CN(COC(=O)C(C)(C)C)c1nc(N(C)COC(=O)C(C)(C)C)nc(N(C)COC(=O)C(C)(C)C)n1 | – | > 100 µM | – | > 100 µM | – | > 100 µM | – | 35.5 µM | – | 39.3 µM | – | > 100 µM | – | > 100 µM | – | > 100 µM | – | 43.9 µM | – | > 100 µM |
| C=CCC(NCc1ccccc1)c1cn(C(=O)OCC)c2ccccc12 (centres undefined) | 20.7 µM | 55.4 µM | 18.5 µM | 36.5 µM | 64.3 µM | > 100 µM | 28 µM | > 100 µM | 13 µM | 25.7 µM | 20 µM | 63.8 µM | 44.7 µM | > 100 µM | > 100 µM | > 100 µM | 20.9 µM | 55 µM | 19.8 µM | 42.6 µM |
| O=C1C=CC(=O)N1c1ccc2ccccc2c1 | 17.9 µM | 39.6 µM | 4.66 µM | 15.4 µM | 38.4 µM | > 100 µM | 2.01 µM | 4.22 µM | 3.93 µM | 12.4 µM | 14.4 µM | 53.4 µM | 27.4 µM | 78.5 µM | 14.5 µM | 28.3 µM | 16.5 µM | 33.1 µM | 1.74 µM | 3.42 µM |
| COc1cccc(/C=C2\COc3ccc(O)c(O)c3C2=O)c1OC | 4.29 µM | 16.9 µM | 3.27 µM | 12.2 µM | 3.07 µM | 12 µM | 3.01 µM | 8.38 µM | 1.9 µM | 4.89 µM | 3.99 µM | 31.5 µM | 7.18 µM | 21 µM | 2.12 µM | 10.3 µM | 1.6 µM | 10.5 µM | 0.19 µM | 0.473 µM |
| CCOC(=O)CCC(NC(=O)c1ccc(Oc2nc3cc(N)cc(N)c3nc2-c2ccccc2)cc1)C(=O)OCC (centres undefined) | 62 µM | > 100 µM | 28.5 µM | > 100 µM | 31.6 µM | > 100 µM | 29.9 µM | > 100 µM | 15.1 µM | 28.7 µM | 43.7 µM | > 100 µM | 27.9 µM | 97.7 µM | 40.7 µM | > 100 µM | 34.3 µM | > 100 µM | 27.5 µM | > 100 µM |
| Nc1ncnc2occ(-c3ccc(NC(=O)Nc4cccc(C(F)(F)F)c4)cc3)c12 | 4.46 µM | 14.5 µM | 1.4 µM | 12.1 µM | 7.69 µM | 21.3 µM | 4.53 µM | 9.16 µM | 2.98 µM | 16 µM | 0.973 µM | 6.74 µM | 4.91 µM | 17.9 µM | 3.54 µM | 9.83 µM | 4.24 µM | 18.2 µM | 4.18 µM | 8.92 µM |
| CC12CC(Br)(Br)C(=O)C3C1CCCC32 | – | 19.1 µM | – | 15.5 µM | – | 28.8 µM | – | 5.16 µM | – | 5.12 µM | – | 45.2 µM | – | 30.8 µM | – | 35.1 µM | – | 15.7 µM | – | 7.84 µM |
| O=C1c2c[n+](Cc3ccccc3)ccc2-c2nc3ccccc3c3ccnc1c23 | 1.28 µM | 4.79 µM | 0.196 µM | 33.3 µM | 0.389 µM | 2.55 µM | 0.409 µM | 1.11 µM | 0.422 µM | 1.86 µM | 1.03 µM | 10.2 µM | 0.568 µM | 2.56 µM | 0.765 µM | 3.66 µM | 0.87 µM | 6.18 µM | 0.518 µM | 1.65 µM |
| O=C(Nc1ccc(Br)cc1)c1cc(Br)ccc1O | 0.788 µM and 0.75 µM | 36.6 µM and > 20.1 µM | 0.61 µM and 1.47 µM | > 64 µM | 0.339 µM and 1 µM | > 93.1 µM | 1.66 µM and 1.71 µM | 3.1 µM and 3.25 µM | 0.354 µM and 1.45 µM | 1.56 µM and 3.56 µM | 0.302 µM and 0.455 µM | 2.94 µM | 0.747 µM and 1.8 µM | – | 0.489 µM and 2.05 µM | 26.6 µM and 13.4 µM | 0.483 µM and 0.779 µM | 4.01 µM and 7.35 µM | 0.263 µM and 0.854 µM | 4.81 µM and 22.2 µM |
| CC(C)OC(=O)NNc1c(Cl)cc(Cl)cc1Cl | – | > 100 µM | – | > 100 µM | – | > 100 µM | – | > 100 µM | – | > 100 µM | – | > 100 µM | – | > 100 µM | – | > 100 µM | – | > 100 µM | – | 95.4 µM |
| C=CC(=O)N1CCN(c2nc(OC[C@@H]3CCCN3C)nc3c(F)c(-c4nc(N)cc(C)c4C(F)(F)F)c(Cl)cc23)[C@@H](C)C1 | 1.98 µM | 4.8 µM | 3.41 µM | 12.6 µM | 3.44 µM | 12.8 µM | 1.86 µM | 3.5 µM | 2.04 µM | 5.39 µM | 1.83 µM | 4.53 µM | 2.62 µM | 6.42 µM | 1.59 µM | 3.19 µM | 1.7 µM | 3.47 µM | 1.21 µM | 2.75 µM |
| CC(=O)OC1C(C)OC(Oc2c(-c3ccc(O)cc3)oc3cc(O)cc(O)c3c2=O)C(O)C1OC(C)=O (centres undefined) | 54.2 µM | > 100 µM | 52.3 µM | > 100 µM | 36.2 µM | > 100 µM | > 67.3 µM | > 100 µM | 35.1 µM | > 100 µM | 24.9 µM | 82.4 µM | 56.4 µM | > 100 µM | 27 µM | > 89.5 µM | 52.3 µM | > 100 µM | 18.5 µM | 47.4 µM |
| O=C1C2C3C=CC(C2C(=O)N1CN1CCOCC1)C1C2C(=O)N(CN4CCOCC4)C(=O)C2C31 (centres undefined) | – | > 100 µM | – | > 91.5 µM | – | > 78.9 µM | – | > 56.9 µM | – | > 62.8 µM | – | > 100 µM | – | > 100 µM | – | > 64 µM | – | > 60.1 µM | – | > 55.2 µM |
| COc1ccc(/C(=N/O)c2cc(F)c(F)c(OC)c2F)cc1O | 0.714 µM | > 100 µM | 0.94 µM | > 100 µM | 0.827 µM | > 100 µM | 5.46 µM | 25.6 µM | 0.393 µM | > 100 µM | 0.938 µM | > 100 µM | 0.523 µM | > 100 µM | 0.839 µM | > 100 µM | 0.42 µM | > 100 µM | 0.259 µM | 3.3 µM |
